Laboratory results from patent publication US11925667B2, “Engineered therapeutic probiotic system and method” (priority 2018, dated 2024).
Where two headings read alike, the source gives them in different places.

How the values were obtained:
LoVo = assay: HlpA binding assay (GFP/DAPI ratio), LoVo; conditions: LoVo human colorectal cell line
Procedure: (§1) Cellular viability is measured at 3 hours, 24 hours and 72 hours post-treatment using the MTT assay (Sigma, St. Louis, USA). The inhibitory activity of myrosinase-converted AITC is performed by incubating cancer cells grown to 60% confluency with 0.1 μM of purified secreted I1 myrosinase with 0˜10 mM sinigrin at 37° C. and 5% CO2 and was sampled at 3 hours, 24 hours and 72 hours post-treatment. The MTT readout is fitted to a dose-response curve to determine the GI50 value (Eq. 2). Absorbance (570 nm)=Bottom+(Top−Bottom)/(1+10^(([Inhibitor]−Log 10 GI50))) (Eq. 2) HlpA binding assay. The HlpA gene sequence is optimized for E. coli expression, and the gene is cloned into a pET28b vector with an N-terminal GFP. GFP-HlpA and GFP are expressed using similar purification protocols, described above. […] Treated and adherent cells are washed with sterile PBS twice before staining with DAPI. The GFP/DAPI ratio is used to evaluate the binding ratio of protein binding per cell (Eq. 3). […] The cancer 394 cells are washed twice with 1×PBS and measured for DAPI and RFP emission. The fluorescence emission is compared on the linear standard curve of stained cells against the average fluorescence emission to determine the binding ratio of E. coli to cancer cells.

HCT116 = assay: HlpA binding assay (GFP/DAPI ratio), HCT116; conditions: HCT116 human colorectal cell line
Procedure: as §1

CT26 = assay: HlpA binding assay (GFP/DAPI ratio), CT26; conditions: CT26 murine colorectal cell line
Procedure: as §1

smooth muscle cells = assay: HlpA binding assay (GFP/DAPI ratio), smooth muscle cells; set-up: species or system human
Procedure: as §1

[1] = test system: gastric (AGS) cancer cell line; assay: HlpA binding assay (GFP/DAPI ratio), AGS; set-up: species or system human
Procedure: as §1

[2] = test system: breast (MCF7) cancer cell line; assay: HlpA binding assay (GFP/DAPI ratio), MCF7; set-up: species or system human
Procedure: as §1

[3] = test system: human esophageal smooth muscle primary cells (SMCs); assay: Cell toxicity assay (MTT), SMC; assay type: cell-based; conditions: for GI50: Homo sapiens, read-out: GI 50 value
Description: (§2) Cell culture and toxicity assay. While HCT116 human colorectal carcinoma cells (ATCC, Manassas, USA), LoVo human colorectal adenocarcinoma cells (ATCC), AGS human gastric adenocarcinoma cells (ATCC), MCF7 human breast adenocarcinoma cells (ATCC), human esophageal smooth muscle primary cells (SMCs) (Cell Biologics, Chicago, USA) and CT26 mouse colorectal carcinoma cells (ATCC) are used according to the claimed invention, other illustrative cell lines may similarly be utilized. Cells are cleared of mycoplasma contamination prior to use using Mycoalert™ PLUS mycoplasma detection kit (Lonza). HCT116 cells are cultured in McCoy's 5A medium, LoVo and AGS cells in Ham's F12 medium, MCF7 cells in DMEM medium, CT26 cells in RPMI medium, and SMCs in the specific medium kit purchased from Cell Biologics. In this illustrative embodiment, unless otherwise stated all cell culture media are purchased from Lonza (Walkersville, USA) and are supplemented with antibiotics (penicillin/streptomycin) and 5% fetal bovine serum (FBS, v/v). SMCs are prepared according to the manufacturer's protocol. All cell cultures are maintained at 37° C. and 5% CO2.
The MTT readout is fitted to a dose-response curve to determine the GI50 value (Eq. 2). Absorbance (570 nm)=Bottom+(Top−Bottom)/(1+10^(([Inhibitor]−Log 10 GI50))) (Eq. 2) HlpA binding assay. The HlpA gene sequence is optimized for E. coli expression, and the gene is cloned into a pET28b vector with an N-terminal GFP. GFP-HlpA and GFP are expressed using similar purification protocols, described above. […] Treated and adherent cells are washed with sterile PBS twice before staining with DAPI. The GFP/DAPI ratio is used to evaluate the binding ratio of protein binding per cell (Eq. 3). Ratio (GFP/DAPI)=Bottom+(Top−Bottom)/(1+10^(([Ligand]−Log 10 KD))) (Eq. 3) Similarly, N-terminal INP tagged to HlpA are cloned into the pBbE8K vector and co390 transformed with pBbE8a-RFP into E. coli Nissle. E. coli cells are cultured in LB supplemented with 50 mg/L ampicillin and 25 mg/L kanamycin and are induced with 1% arabinose. […] The cancer 394 cells are washed twice with 1×PBS and measured for DAPI and RFP emission. The fluorescence emission is compared on the linear standard curve of stained cells against the average fluorescence emission to determine the binding ratio of E. coli to cancer cells.

[4] = test system: AGS human gastric adenocarcinoma cells; assay: Cell toxicity assay (MTT), AGS; assay type: cell-based; conditions: for Complete inhibition: AGS gastric; for GI50: Homo sapiens, read-out: GI 50 value
Description: as §2, with “CO2. Cells are seeded in 96-well plates or on glass coverslips in 6-well plates at a density of […] and are cultured at 37° C. and 5% CO2 a day before protein-binding studies or co-culturing with transformed Nissle cells.” for “CO2.”
as §1

[5] = test system: LoVo human colorectal adenocarcinoma cells; assay: Cell toxicity assay (MTT), LoVo; assay type: cell-based; conditions: for GI50: Homo sapiens, LoVo, read-out: GI 50 value; for Complete inhibition: LoVo colorectal
Description: as §2, with “CO2. Cells are seeded in 96-well plates or on glass coverslips in 6-well plates at a density of […] and are cultured at 37° C. and 5% CO2 a day before protein-binding studies or co-culturing with transformed Nissle cells.” for “CO2.”
as §1

[6] = test system: CT26 mouse colorectal carcinoma cells; assay: Cell toxicity assay (MTT), CT26; assay type: cell-based; conditions: for Complete inhibition: CT26 colorectal; for GI50: Mus musculus, CT26, read-out: GI 50 value
Description: as §2, with “CO2. Cells are seeded in 96-well plates or on glass coverslips in 6-well plates at a density of […] and are cultured at 37° C. and 5% CO2 a day before protein-binding studies or co-culturing with transformed Nissle cells.” for “CO2.”
as §1

[7] = test system: HCT116 human colorectal carcinoma cells; assay: Cell toxicity assay (MTT), HCT116; assay type: cell-based; conditions: for Complete inhibition: HCT116 colorectal; for GI50: Homo sapiens, HCT-116, read-out: GI 50 value
Description: as §2, with “CO2. Cells are seeded in 96-well plates or on glass coverslips in 6-well plates at a density of […] and are cultured at 37° C. and 5% CO2 a day before protein-binding studies or co-culturing with transformed Nissle cells.” for “CO2.”
as §1

[8] = test system: MCF7 human breast adenocarcinoma cells; assay: Cell toxicity assay (MTT), MCF7; assay type: cell-based; conditions: for GI50: Homo sapiens, MCF7, read-out: GI 50 value; for Complete inhibition: MCF7 breast
Description: as §2, with “CO2. Cells are seeded in 96-well plates or on glass coverslips in 6-well plates at a density of […] and are cultured at 37° C. and 5% CO2 a day before protein-binding studies or co-culturing with transformed Nissle cells.” for “CO2.”
as §1

[9] = test system: various colorectal, gastric and breast cancer cell lines; assay: Growth inhibition (MTT), summary over cancer cell lines; assay type: cell-based; conditions: read-out: 50% growth inhibition (GI50) values
Description: as §2, with “In this illustrative embodiment, unless otherwise stated all cell culture media are purchased from Lonza (Walkersville, USA) and are supplemented with antibiotics (penicillin/streptomycin) and 5% fetal bovine serum (FBS, v/v). SMCs are prepared according to the manufacturer's protocol. All cell cultures are maintained at 37° C. and 5% CO2.” left out
The MTT readout is fitted to a dose-response curve to determine the GI50 value (Eq. 2). Absorbance (570 nm)=Bottom+(Top−Bottom)/(1+10^(([Inhibitor]−Log 10 GI50))) (Eq. 2) HlpA binding assay. […] The cancer 394 cells are washed twice with 1×PBS and measured for DAPI and RFP emission. The fluorescence emission is compared on the linear standard curve of stained cells against the average fluorescence emission to determine the binding ratio of E. coli to cancer cells.

[10] = test system: various colorectal, gastric and breast cancer cell lines; assay: Growth inhibition in cancer cell lines; assay type: cell-based
Description: as §2, with “In this illustrative embodiment, unless otherwise stated all cell culture media are purchased from Lonza (Walkersville, USA) and are supplemented with antibiotics (penicillin/streptomycin) and 5% fetal bovine serum (FBS, v/v). SMCs are prepared according to the manufacturer's protocol. All cell cultures are maintained at 37° C. and 5% CO2.” left out
(§3) Cellular viability is measured at 3 hours, 24 hours and 72 hours post-treatment using the MTT assay (Sigma, St. Louis, USA). […] The MTT readout is fitted to a dose-response curve to determine the GI50 value (Eq. 2). Absorbance (570 nm)=Bottom+(Top−Bottom)/(1+10^(([Inhibitor]−Log 10 GI50))) (Eq. 2) HlpA binding assay. […] The cancer 394 cells are washed twice with 1×PBS and measured for DAPI and RFP emission. The fluorescence emission is compared on the linear standard curve of stained cells against the average fluorescence emission to determine the binding ratio of E. coli to cancer cells.

[11] = test system: primary stem cells or other non-cancer cell lines; conditions: in words; cited from earlier work
[12] = test system: SMC (esophageal smooth muscle primary cells); assay: Growth inhibition assay (MTT), SMC; assay type: cell-based, human; conditions: purified YebF-I1 fusion protein and sinigrin, in words
Description: as §2, with “In this illustrative embodiment, unless otherwise stated all cell culture media are purchased from Lonza (Walkersville, USA) and are supplemented with antibiotics (penicillin/streptomycin) and 5% fetal bovine serum (FBS, v/v). SMCs are prepared according to the manufacturer's protocol. All cell cultures are maintained at 37° C. and 5% CO2.” left out
as §3, with “cells. […]” for “cells.”

[13] = test system: AGS gastric adenocarcinoma cells; assay: Growth inhibition assay (MTT), AGS; assay type: cell-based, human
Description: as §2, with “In this illustrative embodiment, unless otherwise stated all cell culture media are purchased from Lonza (Walkersville, USA) and are supplemented with antibiotics (penicillin/streptomycin) and 5% fetal bovine serum (FBS, v/v). SMCs are prepared according to the manufacturer's protocol. All cell cultures are maintained at 37° C. and 5% CO2.” left out
as §3, with “cells. […]” for “cells.”

[14] = test system: LoVo colorectal adenocarcinoma cells; assay: Growth inhibition assay (MTT), LoVo; assay type: cell-based, human
Description: as §2, with “In this illustrative embodiment, unless otherwise stated all cell culture media are purchased from Lonza (Walkersville, USA) and are supplemented with antibiotics (penicillin/streptomycin) and 5% fetal bovine serum (FBS, v/v). SMCs are prepared according to the manufacturer's protocol. All cell cultures are maintained at 37° C. and 5% CO2.” left out
as §3, with “cells. […]” for “cells.”

[15] = test system: CT26 colorectal carcinoma cells; assay: Growth inhibition assay (MTT), CT26; assay type: cell-based, mouse
Description: as §2, with “In this illustrative embodiment, unless otherwise stated all cell culture media are purchased from Lonza (Walkersville, USA) and are supplemented with antibiotics (penicillin/streptomycin) and 5% fetal bovine serum (FBS, v/v). SMCs are prepared according to the manufacturer's protocol. All cell cultures are maintained at 37° C. and 5% CO2.” left out
as §3, with “cells. […]” for “cells.”

[16] = test system: HCT116 colorectal carcinoma cells; assay: Growth inhibition assay (MTT), HCT116; assay type: cell-based, human
Description: as §2, with “In this illustrative embodiment, unless otherwise stated all cell culture media are purchased from Lonza (Walkersville, USA) and are supplemented with antibiotics (penicillin/streptomycin) and 5% fetal bovine serum (FBS, v/v). SMCs are prepared according to the manufacturer's protocol. All cell cultures are maintained at 37° C. and 5% CO2.” left out
as §3, with “cells. […]” for “cells.”

[17] = test system: MCF7 breast adenocarcinoma cells; assay: Growth inhibition assay (MTT), MCF7; assay type: cell-based, human
Description: as §2, with “In this illustrative embodiment, unless otherwise stated all cell culture media are purchased from Lonza (Walkersville, USA) and are supplemented with antibiotics (penicillin/streptomycin) and 5% fetal bovine serum (FBS, v/v). SMCs are prepared according to the manufacturer's protocol. All cell cultures are maintained at 37° C. and 5% CO2.” left out
as §3, with “cells. […]” for “cells.”

[18] = 0.1 μM purified secreted I1 myrosinase with sinigrin
[19] = Homo sapiens, 0.1 μM purified secreted I1 myrosinase with 0~10 mM sinigrin, read-out: GI 50 value

GFP-HlpA: purified N-terminal GFP-tagged Histone-like protein A (HlpA) from Streptococcus gallolyticus
binding affinity (LoVo): sub-micromolar
binding affinity (HCT116): sub-micromolar
binding affinity (CT26): sub-micromolar
weaker binding affinity relative to colorectal cell lines (smooth muscle cells): 6 fold
binding [1]: No binding
binding [2]: No binding

C=CCN=C=S [AITC, allyl isothiocyanate]
GI50 [3]: 589 µM
inhibition of primary smooth muscle cells [3]: does not inhibit
Complete inhibition [4]: <24 h
GI50 [4]: 18 µM
GI50 [5]: 74 µM
Complete inhibition [5]: <24 h
Complete inhibition [6]: <24 h
GI50 [6]: 15 µM
Complete inhibition [7]: <24 h
GI50 [7]: 116 µM
GI50 [8]: 104 µM
Complete inhibition [8]: <3 h
GI50 [9]: ~100 µM
Inhibition of cancer cell growth compared with L-sulforaphane ([10]; in words): poorer efficacy compared with L-sulforaphane

C[S@@+]([O-])CCCCN=C=S [L-sulforaphane]
GI50 ([3]; SMC primary cells, MTT): 375 µM
inhibition of primary smooth muscle cells [3]: does not inhibit
Complete inhibition [4]: <24 h
GI50 [4]: 15 µM
GI50 [5]: 23 µM
Complete inhibition [5]: <24 h
Complete inhibition [6]: <24 h
GI50 [6]: 45 µM
Complete inhibition [7]: <24 h
GI50 [7]: 30 µM
GI50 [8]: 29 µM
Complete inhibition [8]: <3 h
GI50 ([9]; various colorectal, gastric and breast cancer cell lines): < 100 µM
Growth inhibition observed within ([10]; upon adding L-sulforaphane): ≤ 24 h
Effect on primary stem cells or other non-cancer cell lines [11]: does not affect

C=CCN=C=S [YebF-I1-converted AITC, allyl isothiocyanate]
Inhibition of primary smooth muscle cell line [12]: no inhibition
Complete inhibition [13, 18]: <24 h
GI50 [13, 19]: 26 µM
Complete inhibition [14, 18]: <21 h
GI50 [14, 19]: 232 µM
Complete inhibition [15, 18]: <24 h
GI50 ([15]; Mus musculus, 0.1 μM purified secreted I1 myrosinase with 0~10 mM sinigrin, read-out: GI 50 value): 46 µM
Complete inhibition [16, 18]: <24 h
GI50 ([16]; Homo sapiens, HCT-116, 0.1 μM purified secreted I1 myrosinase with 0~10 mM sinigrin, read-out: GI 50 value): 155 µM
Complete inhibition [17, 18]: <24 h
GI50 [17, 19]: 139 µM
